# Reference: ChEMBL document CHEMBL5325491, “Small-Molecule Hydrophobic Tagging: A Promising Strategy of Druglike Technology for Targeted Protein Degradation” (J Med Chem, 2023)
# Starred links: 1 amine or outer side, 2 acyl side, 3 side chain; linkers in the order of their positions; H or OH if unused. Non-standard residues stand in square brackets, D forms with d. Residues, ends and D or L forms follow the SMILES beside them. *: point of attachment. Adamantane1carbonyl = O=C(C12CC3CC(CC(C3)C1)C2)*; X1 = O=C(C12CC3CC(CC(N[*:1])(C3)C1)C2)[*:2]
# Tests used:
# [1] = Antiproliferative activity against HER3 dependent human HCC827 Gefitinib-resistant 6 (GR6) cell assessed as cell viability by CellTiter-Glo Luminescent Assay; type: functional, cell-based
# [2] = Antiproliferative activity against HER3 dependent human PC9 Gefitinib-resistant 4 (GR4) cell assessed as cell viability by CellTiter-Glo Luminescent Assay; type: functional, cell-based
# [3] = test system: OVCAR-8; experiment: Antiproliferative activity against HER3 dependent human OVCAR-8 cells assessed as cell viability by CellTiter-Glo Luminescent Assay; type: functional, cell-based
# [4] = biological target: ALK tyrosine kinase receptor (Homo sapiens, UniProt Q9UM73); experiment: Induction of ALK (unknown origin) degradation
# [5] = test system: NCI-H3122; experiment: Anticancer activity against human NCI-H3122 cells xenografted in mouse assessed as tumor growth inhibition at 20 mg/kg, po administered once every two days for 3 weeks relative to control; type: functional; conditions: NCI-H3122, 504 h, read-out: TGI
# [6] = biological target: T1, Glutathione S-transferase A1 (Homo sapiens) (UniProt P08263); experiment: Induction of GSTAlpha1 degradation in […] cells at 40 uM measured after 4 hrs; type: cell-based
# T1 sequence (whole entry): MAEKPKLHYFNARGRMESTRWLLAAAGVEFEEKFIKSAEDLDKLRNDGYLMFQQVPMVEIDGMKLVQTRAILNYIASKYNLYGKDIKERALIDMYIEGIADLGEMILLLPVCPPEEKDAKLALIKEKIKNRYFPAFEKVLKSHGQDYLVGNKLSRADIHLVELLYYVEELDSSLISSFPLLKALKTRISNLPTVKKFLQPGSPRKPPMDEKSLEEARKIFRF
# [7] = biological target: T2, Dihydrofolate reductase (Escherichia coli) (UniProt P0ABQ4); experiment: Induction of Escherichia coli DHFR degradation in […] cells at 80 uM measured after 4 hrs; type: cell-based
# T2 sequence (whole entry): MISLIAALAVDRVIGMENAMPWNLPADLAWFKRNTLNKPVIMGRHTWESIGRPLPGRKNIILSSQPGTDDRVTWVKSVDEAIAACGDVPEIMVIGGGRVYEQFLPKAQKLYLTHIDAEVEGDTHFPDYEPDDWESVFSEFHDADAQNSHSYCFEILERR
# [8] = biological target: TAR DNA-binding protein 43 (Mus musculus) (UniProt Q921F2); experiment: Induction of TDP-43 degradation in mouse N2a cells at 100 uM measured after 24 hrs by Western blot analysis relative to control; type: cell-based
# [9] = test system: HCC1187; experiment: Anticancer activity against EZH2 dependent human HCC1187 cells assessed as cell growth inhibition by MTT assay; type: functional
# [10] = test system: HCC70; experiment: Anticancer activity against EZH2 dependent human HCC70 cells assessed as cell growth inhibition by MTT assay; type: functional
# [11] = test system: BT-549; experiment: Anticancer activity against EZH2 dependent human BT-549 cells assessed as cell growth inhibition by MTT assay; type: functional
# [12] = test system: HCC1954; experiment: Anticancer activity against EZH2 dependent human HCC1954 cells assessed as cell growth inhibition by MTT assay; type: functional
# [13] = test system: MCF7; experiment: Anticancer activity against EZH2 dependent human MCF7 cells assessed as cell growth inhibition by MTT assay; type: functional
# [14] = test system: KARPAS-422; experiment: Anticancer activity against EZH2 dependent human KARPAS-422 cells assessed as cell growth inhibition by MTT assay; type: functional
# [15] = test system: SU-DHL-8; experiment: Anticancer activity against EZH2 dependent human SU-DHL-8 cells assessed as cell growth inhibition by MTT assay; type: functional
# [16] = biological target: RAC-gamma serine/threonine-protein kinase (Homo sapiens, UniProt Q9Y243); experiment: Induction of Akt3 (unknown origin) degradation
# [17] = test system: PC-9; experiment: Anticancer activity against human PC-9 cells xenografted in NSG mouse assessed as tumor growth inhibition at 20 mg/kg, ip administered once every two days for 14 days relative to control; type: functional; conditions: PC-9, 336 h, time 14 day, read-out: TGI
# [18] = biological target: RAC-alpha serine/threonine-protein kinase (Homo sapiens, UniProt P31749); experiment: Induction of Akt1 (unknown origin) degradation
# [19] = Induction of Akt2 (unknown origin) degradation; parameters: species or system Homo sapiens
# [20] = biological target: T1, Glutathione S-transferase A1 (Homo sapiens); experiment: Induction of GSTAlpha1 degradation in human HeLa cells at 80 uM measured after 4 hrs relative to control; type: cell-based
# [21] = biological target: Microtubule-associated protein tau (Mus musculus) (UniProt P10637); experiment: Induction of tau degradation in mouse N2a cells at 150 uM measured after 24 hrs by Western blot analysis relative to control; type: cell-based
# Sequence of Microtubule-associated protein tau (Mus musculus) (P10637 whole entry): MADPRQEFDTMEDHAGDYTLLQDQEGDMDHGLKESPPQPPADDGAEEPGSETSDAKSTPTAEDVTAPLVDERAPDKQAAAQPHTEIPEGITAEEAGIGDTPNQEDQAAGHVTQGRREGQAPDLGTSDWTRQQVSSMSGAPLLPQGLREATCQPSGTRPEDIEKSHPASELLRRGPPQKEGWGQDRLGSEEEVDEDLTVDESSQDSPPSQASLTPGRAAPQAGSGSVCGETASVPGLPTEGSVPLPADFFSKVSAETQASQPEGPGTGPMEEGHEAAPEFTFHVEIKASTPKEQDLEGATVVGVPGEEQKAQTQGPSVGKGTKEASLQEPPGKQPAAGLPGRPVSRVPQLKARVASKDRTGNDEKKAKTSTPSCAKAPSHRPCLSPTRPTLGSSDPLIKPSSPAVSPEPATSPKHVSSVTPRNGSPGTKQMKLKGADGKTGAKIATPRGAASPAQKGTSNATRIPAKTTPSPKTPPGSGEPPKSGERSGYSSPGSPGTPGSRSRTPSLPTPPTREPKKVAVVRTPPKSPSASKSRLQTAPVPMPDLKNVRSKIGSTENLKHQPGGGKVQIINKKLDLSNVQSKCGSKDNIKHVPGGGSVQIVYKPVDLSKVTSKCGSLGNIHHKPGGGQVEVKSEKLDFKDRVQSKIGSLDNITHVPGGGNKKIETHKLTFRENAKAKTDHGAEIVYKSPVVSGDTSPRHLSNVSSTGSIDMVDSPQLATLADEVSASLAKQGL
# Sequence of ALK tyrosine kinase receptor (Q9UM73 whole entry): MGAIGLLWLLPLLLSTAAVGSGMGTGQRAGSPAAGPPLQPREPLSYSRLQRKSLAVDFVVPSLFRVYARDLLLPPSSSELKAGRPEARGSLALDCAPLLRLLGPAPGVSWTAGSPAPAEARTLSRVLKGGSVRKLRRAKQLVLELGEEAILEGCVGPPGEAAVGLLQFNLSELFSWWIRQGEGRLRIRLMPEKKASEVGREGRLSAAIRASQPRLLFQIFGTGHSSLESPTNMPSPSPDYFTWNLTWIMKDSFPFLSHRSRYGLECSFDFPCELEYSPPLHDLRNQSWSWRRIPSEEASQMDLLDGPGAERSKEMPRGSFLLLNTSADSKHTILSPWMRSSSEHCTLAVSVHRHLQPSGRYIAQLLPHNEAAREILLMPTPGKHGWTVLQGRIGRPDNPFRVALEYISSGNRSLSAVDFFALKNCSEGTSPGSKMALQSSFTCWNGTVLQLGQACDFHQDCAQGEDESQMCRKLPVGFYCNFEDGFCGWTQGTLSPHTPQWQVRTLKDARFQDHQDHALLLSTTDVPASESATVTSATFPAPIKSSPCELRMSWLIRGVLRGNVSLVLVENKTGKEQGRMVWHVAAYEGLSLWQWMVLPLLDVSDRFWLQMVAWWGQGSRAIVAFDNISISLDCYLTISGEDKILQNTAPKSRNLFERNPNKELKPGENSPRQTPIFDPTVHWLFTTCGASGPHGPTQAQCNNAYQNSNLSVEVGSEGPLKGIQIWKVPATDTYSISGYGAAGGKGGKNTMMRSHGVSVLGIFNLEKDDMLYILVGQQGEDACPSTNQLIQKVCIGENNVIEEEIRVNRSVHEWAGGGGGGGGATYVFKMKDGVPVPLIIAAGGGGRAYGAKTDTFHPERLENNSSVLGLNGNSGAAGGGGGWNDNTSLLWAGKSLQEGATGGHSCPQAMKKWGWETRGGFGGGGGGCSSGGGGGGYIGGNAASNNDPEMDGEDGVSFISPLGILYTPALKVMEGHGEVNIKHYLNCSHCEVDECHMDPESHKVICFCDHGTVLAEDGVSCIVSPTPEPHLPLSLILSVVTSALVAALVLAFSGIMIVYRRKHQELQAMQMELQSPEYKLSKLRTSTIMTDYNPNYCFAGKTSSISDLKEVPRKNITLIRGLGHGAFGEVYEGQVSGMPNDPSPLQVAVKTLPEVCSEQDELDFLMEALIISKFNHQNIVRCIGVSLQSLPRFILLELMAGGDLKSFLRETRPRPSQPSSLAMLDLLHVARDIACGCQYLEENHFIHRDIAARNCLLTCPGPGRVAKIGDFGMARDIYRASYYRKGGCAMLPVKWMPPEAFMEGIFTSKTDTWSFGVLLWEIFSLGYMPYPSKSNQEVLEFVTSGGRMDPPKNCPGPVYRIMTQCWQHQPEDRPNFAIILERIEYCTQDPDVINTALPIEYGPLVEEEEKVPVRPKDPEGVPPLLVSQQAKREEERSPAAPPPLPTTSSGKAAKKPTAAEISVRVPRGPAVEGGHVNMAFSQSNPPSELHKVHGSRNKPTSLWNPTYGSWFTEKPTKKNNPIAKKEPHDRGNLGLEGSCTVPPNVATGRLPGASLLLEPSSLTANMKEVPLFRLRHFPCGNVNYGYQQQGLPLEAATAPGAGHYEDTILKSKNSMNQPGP
# Sequence of RAC-alpha serine/threonine-protein kinase (P31749 whole entry): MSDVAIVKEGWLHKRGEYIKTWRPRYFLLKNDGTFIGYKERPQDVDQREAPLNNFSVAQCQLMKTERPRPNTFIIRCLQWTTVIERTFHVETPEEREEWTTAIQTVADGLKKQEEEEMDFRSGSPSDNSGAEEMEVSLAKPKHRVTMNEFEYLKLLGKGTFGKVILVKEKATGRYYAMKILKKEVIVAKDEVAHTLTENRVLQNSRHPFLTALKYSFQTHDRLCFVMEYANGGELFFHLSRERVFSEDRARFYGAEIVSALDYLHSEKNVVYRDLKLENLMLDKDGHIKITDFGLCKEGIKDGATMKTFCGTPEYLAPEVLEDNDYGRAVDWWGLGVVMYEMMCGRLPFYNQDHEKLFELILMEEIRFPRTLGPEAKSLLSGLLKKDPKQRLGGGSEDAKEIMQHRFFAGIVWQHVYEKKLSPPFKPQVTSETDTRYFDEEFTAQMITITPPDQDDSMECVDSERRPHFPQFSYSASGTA
# Sequence of TAR DNA-binding protein 43 (Mus musculus) (Q921F2 whole entry): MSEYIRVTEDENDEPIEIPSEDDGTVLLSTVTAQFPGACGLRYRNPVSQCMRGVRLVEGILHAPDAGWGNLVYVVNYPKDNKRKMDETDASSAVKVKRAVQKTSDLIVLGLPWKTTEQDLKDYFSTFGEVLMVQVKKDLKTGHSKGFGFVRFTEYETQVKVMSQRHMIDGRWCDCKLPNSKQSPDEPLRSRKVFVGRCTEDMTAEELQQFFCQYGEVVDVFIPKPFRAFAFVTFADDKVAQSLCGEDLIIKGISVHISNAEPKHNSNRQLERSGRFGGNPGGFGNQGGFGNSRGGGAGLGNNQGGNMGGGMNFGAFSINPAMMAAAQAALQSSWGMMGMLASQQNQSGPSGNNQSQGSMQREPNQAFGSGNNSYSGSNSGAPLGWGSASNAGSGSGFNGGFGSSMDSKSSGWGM
# Sequence of RAC-gamma serine/threonine-protein kinase (Q9Y243 whole entry): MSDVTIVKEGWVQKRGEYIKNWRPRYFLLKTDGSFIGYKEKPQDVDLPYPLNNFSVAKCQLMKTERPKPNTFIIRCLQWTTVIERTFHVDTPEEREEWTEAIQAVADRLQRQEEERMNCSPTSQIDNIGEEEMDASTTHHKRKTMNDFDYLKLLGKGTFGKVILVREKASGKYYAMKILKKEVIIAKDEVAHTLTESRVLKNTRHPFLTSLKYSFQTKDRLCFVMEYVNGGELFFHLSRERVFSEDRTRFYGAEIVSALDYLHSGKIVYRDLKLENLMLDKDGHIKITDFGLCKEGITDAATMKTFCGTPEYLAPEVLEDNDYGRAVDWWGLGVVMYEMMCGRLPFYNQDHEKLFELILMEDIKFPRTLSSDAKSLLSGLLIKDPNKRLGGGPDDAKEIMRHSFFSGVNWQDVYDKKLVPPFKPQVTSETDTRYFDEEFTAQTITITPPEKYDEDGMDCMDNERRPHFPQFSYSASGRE
smiles,measurement,setting,value
C=CC(=O)Nc1cc(-c2nn(C3CCN(CCNC(=O)[C@H](C)CCC45CC6CC(CC(C6)C4)C5)CC3)c3ncnc(N)c23)ccc1Oc1ccccc1,EC50,[1],0.8 µM
same,EC50,[2],0.8 µM
same,EC50,[3],0.8 µM
CCc1cc2c(cc1N1CCN(CCCCC(=O)NCC3CC4C=CC3C4)CC1)C(C)(C)c1[nH]c3cc(C#N)ccc3c1C2=O (stereo not drawn),DC50,[4],0.134 µM
same,inhibition in vivo at 20 mg/kg,[5],58%
Cc1cc(Nc2ncc(Cl)c(Nc3ccccc3S(=O)(=O)C(C)C)n2)c(OC(C)C)cc1C1CCN(CC(=O)NCC2CC3C=CC2C3)CC1 (stereo not drawn),DC50,[4],0.314 µM
COc1cc(Cc2cnc(N)nc2N)cc(OC)c1OCC(=O)NCCCCCCNC(=O)[C@@H](CCCN/C(=N\C(=O)OC(C)(C)C)NC(=O)OC(C)(C)C)NC(=O)OC(C)(C)C,Activity,[6],80%
same,Activity,[7],60%
COc1cc(N2CCN(CC(=O)NCC3CC4C=CC3C4)CC2)ccc1Nc1ncc(Cl)c(Nc2ccccc2P(C)(C)=O)n1 (stereo not drawn),DC50,[4],0.089 µM
CC[C@H](C)[C@H](NC(=O)CNC(=O)[C@H](CCCCN)NC(=O)[C@@H](NC(=O)[C@@H](NC(=O)[C@H](CC(C)C)NC(=O)[C@H](CC(=O)O)NC(=O)[C@H](CCC(=O)O)NC(=O)[C@H](CO)NC(=O)CNC(=O)[C@H](CO)NC(=O)CNC(=O)[C@H](CCCCN)NC(=O)C12CC3CC(CC(NC(=O)C45CC6CC(CC(C6)C4)C5)(C3)C1)C2)[C@@H](C)CC)[C@@H](C)CC)C(=O)N[C@@H](CO)C(=O)N[C@H](C(=O)NCC(=O)N[C@@H](CCCNC(=N)N)C(=O)N[C@@H](CCCCN)C(=O)N[C@@H](CCCCN)C(=O)N[C@@H](CCCNC(=N)N)C(=O)N[C@@H](CCCNC(=N)N)C(=O)N[C@@H](CCC(N)=O)C(=O)N[C@@H](CCCNC(=N)N)C(=O)N[C@@H](CCCNC(=N)N)C(=O)N[C@@H](CCCNC(=N)N)C(N)=O)C(C)C (Adamantane1carbonyl-[X1]KGSGSEDLIIKGISVGRKKRRQRRR-NH2),Activity,[8],80%
Cc1cc(C)c(CNC(=O)c2cc(-c3ccc(N4CCN(CCNC(=O)CC56CC7CC(CC(C7)C5)C6)CC4)nc3)cc3c2cnn3C(C)C)c(=O)[nH]1,GI50,[9],1.1 µM
same,GI50,[10],1.1 µM
same,GI50,[11],1.1 µM
same,GI50,[12],1.1 µM
same,GI50,[13],1.1 µM
same,GI50,[14],1.1 µM
same,GI50,[15],1.1 µM
COc1cc(N2CCN(CCCCCCCCCCCCNC(=O)CC34CC5CC(CC(C5)C3)C4)CC2)ccc1Nc1ncc2c(C)cc(=O)n(-c3cccc(NC(=O)C4CC4)c3)c2n1,DC50,[16],0.013 µM
same,inhibition in vivo at 20 mg/kg,[17],75%
same,DC50,[18],> 1 µM
same,DC50,[19],> 1 µM
C=C(CC)C(=O)c1ccc(OCC(=O)O)c(Cl)c1Cl,Activity,[20],75%
C[C@H](NC(=O)[C@H](CC(=O)O)NC(=O)[C@H](CCC(N)=O)NC(=O)[C@H](Cc1ccc(O)cc1)NC(=O)[C@H](CCC(N)=O)NC(=O)[C@H](CCC(N)=O)NC(=O)[C@H](Cc1ccc(O)cc1)NC(=O)C12CC3CC(CC(C3)C1)C2)C(=O)N[C@H](C(=O)N[C@@H](C)C(=O)N[C@@H](CC(=O)O)C(=O)N[C@@H](CCC(=O)O)C(=O)N[C@@H](CCC(N)=O)C(=O)NCC(=O)N[C@H](CCCNC(=N)N)C(=O)N[C@H](CCCNC(=N)N)C(=O)N[C@H](CCCNC(=N)N)C(=O)N[C@H](CCCNC(=N)N)C(=O)N[C@H](CCCNC(=N)N)C(=O)N[C@H](CCCNC(=N)N)C(=O)N[C@H](CCCNC(=N)N)C(=O)N[C@H](CCCNC(=N)N)C(N)=O)[C@@H](C)O,Activity,[21],88%
